Measurements taken from patent publication US20230085307A1, “PYRIDAZINONE COMPOUND AND HERBICIDE” (NISSAN CHEMICAL CORPORATION, priority 2019, published 2023).

Legend:
barnyard grass [1] = experiment: Test Example 3: herbicidal effect by foliage application, Wagner pot (Table 18, symbol H); type: in vivo, barnyard grass (Echinochloa crus-galli); details: for herbicidal effect on H: barnyard grass: amount of applied herbicide 320 g/ha
Summary of the method: (§1)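 Plants were sown in alluvial soil held under 0.1–0.5 cm standing water and grown 14 days in a greenhouse at 25–30 °C. An emulsifiable formulation, water-diluted to the set dose, was then sprayed onto the foliage, and effects were scored three weeks later using previously defined criteria.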

Chinese sprangletop = experiment: Test Example 3: herbicidal effect by foliage application, Wagner pot (Table 18, symbol D); type: in vivo, chinese sprangletop (Leptochloa chinensis); details: for herbicidal effect on D: Chinese sprangletop: amount of applied herbicide 320 g/ha
Summary of the method: as §1

rice flat sedge = experiment: Test Example 3: herbicidal effect by foliage application, Wagner pot (Table 18, symbol E); type: in vivo, rice flat sedge (Cyperus iria); details: for herbicidal effect on E: rice flat sedge: amount of applied herbicide 320 g/ha
Summary of the method: as §1

southern crabgrass = experiment: Test Example 5: herbicidal effect by foliage application, plastic box (Table 20, symbol F); type: in vivo, southern crabgrass (Digitaria ciliaris); details: for F: southern crabgrass, herbicidal effect grade: three weeks after application
Summary of the method: (§2)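 Plants sown in sterilized diluvial soil and grown 14 days in a greenhouse at 25° C to 30° C, then sprayed on the foliage with the compound's emulsion diluted in water to a predetermined herbicide amount. Injury to weeds and crops scored three weeks after application on a visual rating scale.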

green foxtail = experiment: Test Example 5: herbicidal effect by foliage application, plastic box (Table 20, symbol G); type: in vivo, green foxtail (Setaria viridis); details: for G: green foxtail, herbicidal effect grade: three weeks after application
Summary of the method: as §2

barnyard grass [2] = experiment: Test Example 5: herbicidal effect by foliage application, plastic box (Table 20, symbol H); type: in vivo, barnyard grass (Echinochloa crus-galli); details: for H: barnyard grass, herbicidal effect grade: three weeks after application
Summary of the method: as §2

wild oat = experiment: Test Example 5: herbicidal effect by foliage application, plastic box (Table 20, symbol I); type: in vivo, wild oat (Avena fatua); details: for I: wild oat, herbicidal effect grade: three weeks after application
Summary of the method: as §2

blackgrass = experiment: Test Example 5: herbicidal effect by foliage application, plastic box (Table 20, symbol J); type: in vivo, blackgrass (Alopecurus myosuroides); details: for J: blackgrass, herbicidal effect grade: three weeks after application
Summary of the method: as §2

Italian ryegrass = experiment: Test Example 5: herbicidal effect by foliage application, plastic box (Table 20, symbol K); type: in vivo, Italian ryegrass (Lolium multiflorum); details: for K: Italian ryegrass, herbicidal effect grade: three weeks after application
Summary of the method: as §2

windgrass = experiment: Test Example 5: herbicidal effect by foliage application, plastic box (Table 20, symbol L); type: in vivo, windgrass (Apera spica-venti); details: for L: windgrass, herbicidal effect grade: three weeks after application
Summary of the method: as §2

velvetleaf = experiment: Test Example 5: herbicidal effect by foliage application, plastic box (Table 20, symbol M); type: in vivo, velvetleaf (Abutilon theophrasti); details: for M: velvetleaf, herbicidal effect grade: three weeks after application
Summary of the method: as §2

redroot pigweed = experiment: Test Example 5: herbicidal effect by foliage application, plastic box (Table 20, symbol N); type: in vivo, redroot pigweed (Amaranthus retroflexus); details: for N: redroot pigweed, herbicidal effect grade: three weeks after application
Summary of the method: as §2

lambsquarters = experiment: Test Example 5: herbicidal effect by foliage application, plastic box (Table 20, symbol O); type: in vivo, lambsquarters (Chenopodium album); details: for O: lambsquarters, herbicidal effect grade: three weeks after application
Summary of the method: as §2

chickweed = experiment: Test Example 5: herbicidal effect by foliage application, plastic box (Table 20, symbol P); type: in vivo, common chickweed (Stellaria media); details: for P: chickweed, herbicidal effect grade: three weeks after application
Summary of the method: as §2

persian speedwell = experiment: Test Example 5: herbicidal effect by foliage application, plastic box (Table 20, symbol R); type: in vivo, Persian speedwell (Veronica persica); details: for R: persian speedwell, herbicidal effect grade: three weeks after application
Summary of the method: as §2

[3] = foliage application, AAH 320 g/ha, evaluated three weeks after application
[4] = 320 g/ha, foliage application after 14-day growth, evaluated three weeks after application

SMILES | herbicidal effect on H: barnyard grass (barnyard grass [1]) | herbicidal effect on D: Chinese sprangletop (Chinese sprangletop) | herbicidal effect on E: rice flat sedge (rice flat sedge) | F: southern crabgrass, herbicidal effect grade (southern crabgrass; foliage application, 320 g/ha) | G: green foxtail, herbicidal effect grade (green foxtail; foliage application, 320 g/ha) | H: barnyard grass, herbicidal effect grade (barnyard grass [2]; foliage application, 320 g/ha) | I: wild oat, herbicidal effect grade (wild oat; foliage application, 320 g/ha) | J: blackgrass, herbicidal effect grade (blackgrass; foliage application, 320 g/ha) | K: Italian ryegrass, herbicidal effect grade (Italian ryegrass; foliage application, 320 g/ha) | L: windgrass, herbicidal effect grade (windgrass; foliage application, 320 g/ha) | M: velvetleaf, herbicidal effect grade (velvetleaf; foliage application, 320 g/ha) | N: redroot pigweed, herbicidal effect grade (redroot pigweed; foliage application, 320 g/ha) | O: lambsquarters, herbicidal effect grade (lambsquarters; foliage application, 320 g/ha) | P: chickweed, herbicidal effect grade (chickweed; foliage application, 320 g/ha) | R: persian speedwell, herbicidal effect grade (persian speedwell; foliage application, 320 g/ha) | other results
Cc1nn(C)c(=O)c(-c2c(-c3ccc(OC(F)F)cc3)sc3ccc(F)cc23)c1OC(=O)SC(C)(C)C [2-296] | 5 (Herbicidal rate of 90% or more (almost completely withered)) | 2 (Herbicidal rate of 20% or more and less than 40%) | 3 (Herbicidal rate of 40% or more and less than 70%) | – | – | – | – | – | – | – | – | – | – | – | – | F: southern crabgrass, herbicidal effect (criteria 0-5) (southern crabgrass; [3]): 0 (Herbicidal rate of 5% or less (almost no effect)); G: green foxtail, herbicidal effect (criteria 0-5) (green foxtail; [3]): 5 (Herbicidal rate of 90% or more (almost completely withered)); H: barnyard grass, herbicidal effect (criteria 0-5) (barnyard grass [2]; [3]): 4 (Herbicidal rate of 70% or more and less than 90%); I: wild oat, herbicidal effect (criteria 0-5) (wild oat; [3]): 0 (Herbicidal rate of 5% or less (almost no effect)); J: blackgrass, herbicidal effect (criteria 0-5) (blackgrass; [3]): 3 (Herbicidal rate of 40% or more and less than 70%); K: Italian ryegrass, herbicidal effect (criteria 0-5) (Italian ryegrass; [3]): 1 (Herbicidal rate of 5% or more and less than 20%); L: windgrass, herbicidal effect (criteria 0-5) (windgrass; [3]): 0 (Herbicidal rate of 5% or less (almost no effect)); M: velvetleaf, herbicidal effect (criteria 0-5) (velvetleaf; [3]): 5 (Herbicidal rate of 90% or more (almost completely withered)); N: redroot pigweed, herbicidal effect (criteria 0-5) (redroot pigweed; [3]): 5 (Herbicidal rate of 90% or more (almost completely withered)); O: lambsquarters, herbicidal effect (criteria 0-5) (lambsquarters; [3]): 5 (Herbicidal rate of 90% or more (almost completely withered)); P: chickweed, herbicidal effect (criteria 0-5) (chickweed; [3]): 5 (Herbicidal rate of 90% or more (almost completely withered)); R: persian speedwell, herbicidal effect (criteria 0-5) (persian speedwell; [3]): 5 (Herbicidal rate of 90% or more (almost completely withered))
Cc1nn(Cc2ccccc2)c(=O)c(-c2c(-c3ccc(C(F)(F)F)cc3)sc3ccc(F)cc23)c1O [2-436] | 3 (Herbicidal rate of 40% or more and less than 70%) | 0 (Herbicidal rate of 5% or less (almost no effect)) | 2 (Herbicidal rate of 20% or more and less than 40%) | 0 (Herbicidal rate of 5% or less (almost no effect)) | 0 (Herbicidal rate of 5% or less (almost no effect)) | 0 (Herbicidal rate of 5% or less (almost no effect)) | 0 (Herbicidal rate of 5% or less (almost no effect)) | 0 (Herbicidal rate of 5% or less (almost no effect)) | 0 (Herbicidal rate of 5% or less (almost no effect)) | 0 (Herbicidal rate of 5% or less (almost no effect)) | 0 (Herbicidal rate of 5% or less (almost no effect)) | 3 (Herbicidal rate of 40% or more and less than 70%) | 0 (Herbicidal rate of 5% or less (almost no effect)) | 0 (Herbicidal rate of 5% or less (almost no effect)) | 0 (Herbicidal rate of 5% or less (almost no effect)) | –
COCCOCOc1c(C)nn(C)c(=O)c1-c1c(-c2ccc(Oc3ncc(C(F)(F)F)cc3Cl)cc2)sc2ccc(F)cc12 [2-468] | 3 (Herbicidal rate of 40% or more and less than 70%) | 2 (Herbicidal rate of 20% or more and less than 40%) | 2 (Herbicidal rate of 20% or more and less than 40%) | 0 (Herbicidal rate of 5% or less (almost no effect)) | 0 (Herbicidal rate of 5% or less (almost no effect)) | 5 (Herbicidal rate of 90% or more (almost completely withered)) | 0 (Herbicidal rate of 5% or less (almost no effect)) | 0 (Herbicidal rate of 5% or less (almost no effect)) | 0 (Herbicidal rate of 5% or less (almost no effect)) | 0 (Herbicidal rate of 5% or less (almost no effect)) | 0 (Herbicidal rate of 5% or less (almost no effect)) | 1 (Herbicidal rate of 5% or more and less than 20%) | 2 (Herbicidal rate of 20% or more and less than 40%) | 0 (Herbicidal rate of 5% or less (almost no effect)) | 3 (Herbicidal rate of 40% or more and less than 70%) | –
Cc1nn(C)c(=O)c(-c2c(-c3ccc(Cl)cc3)sc3cc(F)ccc23)c1O [3-015] | 3 (Herbicidal rate of 40% or more and less than 70%) | 3 (Herbicidal rate of 40% or more and less than 70%) | 3 (Herbicidal rate of 40% or more and less than 70%) | 0 (Herbicidal rate of 5% or less (almost no effect)) | 0 (Herbicidal rate of 5% or less (almost no effect)) | 0 (Herbicidal rate of 5% or less (almost no effect)) | 0 (Herbicidal rate of 5% or less (almost no effect)) | 1 (Herbicidal rate of 5% or more and less than 20%) | 0 (Herbicidal rate of 5% or less (almost no effect)) | 5 (Herbicidal rate of 90% or more (almost completely withered)) | 0 (Herbicidal rate of 5% or less (almost no effect)) | 2 (Herbicidal rate of 20% or more and less than 40%) | 0 (Herbicidal rate of 5% or less (almost no effect)) | 4 (Herbicidal rate of 70% or more and less than 90%) | 2 (Herbicidal rate of 20% or more and less than 40%) | –
Cc1nn(C)c(=O)c(-c2c(-c3ccc(OC(F)F)cc3)sc3cc(Cl)ccc23)c1O [3-147] | – | – | – | – | – | – | – | – | – | – | – | – | – | – | – | herbicidal effect on barnyard grass (H) (barnyard grass [1]; 320 g/ha): 4 (Herbicidal rate of 70% or more and less than 90%); herbicidal effect on Chinese sprangletop (D) (Chinese sprangletop; 320 g/ha): 2 (Herbicidal rate of 20% or more and less than 40%); herbicidal effect on rice flat sedge (E) (rice flat sedge; 320 g/ha): 3 (Herbicidal rate of 40% or more and less than 70%); herbicidal effect on F: southern crabgrass (evaluation grade 0-5) (southern crabgrass; [4]): 3 (Herbicidal rate of 40% or more and less than 70%); herbicidal effect on G: green foxtail (evaluation grade 0-5) (green foxtail; [4]): 5 (Herbicidal rate of 90% or more (almost completely withered)); herbicidal effect on H: barnyard grass (evaluation grade 0-5) (barnyard grass [2]; [4]): 3 (Herbicidal rate of 40% or more and less than 70%); herbicidal effect on I: wild oat (evaluation grade 0-5) (wild oat; [4]): 3 (Herbicidal rate of 40% or more and less than 70%); herbicidal effect on J: blackgrass (evaluation grade 0-5) (blackgrass; [4]): 5 (Herbicidal rate of 90% or more (almost completely withered)); herbicidal effect on K: Italian ryegrass (evaluation grade 0-5) (Italian ryegrass; [4]): 3 (Herbicidal rate of 40% or more and less than 70%); herbicidal effect on L: windgrass (evaluation grade 0-5) (windgrass; [4]): 5 (Herbicidal rate of 90% or more (almost completely withered)); herbicidal effect on M: velvetleaf (evaluation grade 0-5) (velvetleaf; [4]): 4 (Herbicidal rate of 70% or more and less than 90%); herbicidal effect on N: redroot pigweed (evaluation grade 0-5) (redroot pigweed; [4]): 4 (Herbicidal rate of 70% or more and less than 90%); herbicidal effect on O: lambsquarters (evaluation grade 0-5) (lambsquarters; [4]): 5 (Herbicidal rate of 90% or more (almost completely withered)); herbicidal effect on P: chickweed (evaluation grade 0-5) (chickweed; [4]): 5 (Herbicidal rate of 90% or more (almost completely withered)); herbicidal effect on R: persian speedwell (evaluation grade 0-5) (persian speedwell; [4]): 5 (Herbicidal rate of 90% or more (almost completely withered))
